According to ChEMBL document CHEMBL3727358, “Inhibitors of inducible form of 6-phosphofructose-2-kinase” (2014):

Target: 6-phosphofructo-2-kinase/fructose-2,6-bisphosphatase 3 (Homo sapiens, UniProt Q16875)
Assay: Inhibition of iPFK2 (unknown origin) assessed as reduction in enzyme-mediated fructose-6-phosphate phosphorylation by measuring ATP consumption incubated for 3 hrs by luciferase-luciferin-coupled chemiluminescence assay

6-phosphofructo-2-kinase/fructose-2,6-bisphosphatase 3, sequence (Q16875 whole entry): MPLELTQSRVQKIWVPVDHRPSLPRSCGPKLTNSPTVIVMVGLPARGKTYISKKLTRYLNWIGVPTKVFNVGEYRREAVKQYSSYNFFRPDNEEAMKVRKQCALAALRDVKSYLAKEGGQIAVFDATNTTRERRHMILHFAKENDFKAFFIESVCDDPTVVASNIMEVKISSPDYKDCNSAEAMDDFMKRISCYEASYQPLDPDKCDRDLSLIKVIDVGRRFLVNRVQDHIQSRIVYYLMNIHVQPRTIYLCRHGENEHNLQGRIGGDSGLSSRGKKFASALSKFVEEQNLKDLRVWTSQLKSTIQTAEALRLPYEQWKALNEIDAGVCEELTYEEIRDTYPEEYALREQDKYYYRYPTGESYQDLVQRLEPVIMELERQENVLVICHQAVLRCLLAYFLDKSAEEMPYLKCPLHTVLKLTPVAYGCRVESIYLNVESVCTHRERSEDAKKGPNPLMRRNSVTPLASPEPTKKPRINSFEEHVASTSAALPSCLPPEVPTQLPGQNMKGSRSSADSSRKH

Row | IC50 [nM] | SMILES
1 | 500 | Cc1nc(NC(C)c2ccnc(Cl)c2)cc(-c2ccc3ncsc3c2)n1 (stereo not drawn)
2 | 500 | COc1cccc(-c2cc(NC(C)c3cccc(S(=O)(=O)NCC#N)c3)nc(C)n2)c1 (stereo not drawn)
3 | 500 | CNC(=O)COc1cccc(C(C)Nc2cc(-c3ccc4c(c3)OCO4)nc(C)n2)c1 (stereo not drawn)
4 | > 1000 | Cc1nc(NC[C@@H](C)c2ccccc2)cc(-c2ccc3ncsc3c2)n1
5 | > 1000 | COc1ccc2c(c1)C(Nc1cc(-c3ccc4ncsc4c3)nc(C)n1)CCC2 (stereo not drawn)
6 | > 1000 | Cc1nc(N[C@@H]2CCCc3ccccc32)cc(-c2ccc(OC(F)(F)F)cc2)n1
7 | 500 | Cc1nc(NC2Cc3ccccc3C2)cc(-c2ccc3ncsc3c2)n1
8 | 500 | C#CCNS(=O)(=O)c1cccc(C(C)Nc2cc(-c3ccc4ncsc4c3)nc(C)n2)c1 (stereo not drawn)
9 | > 1000 | Cc1nc(N[C@@H]2CCCc3ccccc32)cc(-c2cccnc2)n1
10 | > 1000 | CCOC(=O)CCCOc1cccc(C(C)Nc2cc(-c3ccc4ncsc4c3)nc(C)n2)c1 (stereo not drawn)
11 | > 1000 | CNC(=O)c1cc(-c2cc(N[C@@H]3CCCc4ccccc43)nc(C)n2)ccc1Cl
12 | > 1000 | Cc1nc(N[C@@H]2CCCc3ccccc32)cc(-c2ccc(N(C)C)cc2)n1
13 | 500 | Cc1nc(N[C@H](C)c2cccc(-c3cnn(C)c3)c2)cc(-c2ccc3occ(C)c3c2)n1
14 | > 1000 | CCc1coc2ccc(-c3cc(NC(C)c4cccc(O)c4)nc(C)n3)cc12 (stereo not drawn)
15 | 500 | Cc1nc(NC(C)c2cccc(O)c2)cc(-c2ccc3ncsc3c2)n1 (stereo not drawn)
16 | > 1000 | Cc1nc(N[C@@H]2CCCc3ccccc32)cc(-c2ccc3c(c2)OCCN3C)n1

Row | IC50 [nM] | SMILES
17 | > 1000 | COC(=O)CNS(=O)(=O)c1cccc(C(C)Nc2cc(-c3cccc(OC)c3)nc(C)n2)c1 (stereo not drawn)
18 | > 1000 | COc1cccc([C@H](C)Nc2cc(-c3ccc4c(ccn4C)c3)nc(C)n2)c1
19 | 500 | Cc1nc(N[C@@H]2CCCc3ccccc32)cc(-c2ccc3ccccc3c2)n1
20 | > 1000 | Cc1nc(N[C@@H]2CCCc3ccccc32)cc(-c2ccccc2F)n1
21 | 500 | Cc1nc(NC(C)c2cccnc2)cc(-c2ccc3ncsc3c2)n1 (stereo not drawn)
22 | 500 | Cc1nc(NC(C)c2cccc(OCCCC(=O)O)c2)cc(-c2ccc3ncsc3c2)n1 (stereo not drawn)
23 | 500 | Cc1nc(NC(C)c2cccc(OCC(=O)O)c2)cc(-c2ccc3ccn(C)c3c2)n1 (stereo not drawn)
24 | 500 | Cc1cccc(-c2cc(NC(C)c3cccc(-c4cnn(C)c4)c3)nc(C)n2)c1 (stereo not drawn)
25 | > 1000 | CNC(=O)CNc1cc(-c2cc(N[C@@H]3CCCc4ccccc43)nc(C)n2)ccc1Cl
26 | 500 | Cc1nc(N[C@@H]2CCCc3ccccc32)cc(-c2cccc(O)c2)n1
27 | > 1000 | Cc1nc(NCCCC(C)(C)CO)cc(-c2ccc3ncsc3c2)n1
28 | > 1000 | COc1ccc(Cl)c(-c2cc(N[C@@H]3CCCc4ccccc43)nc(C)n2)c1
29 | > 1000 | Cc1nc(N[C@H]2CCOc3ccccc32)cc(-c2ccc3ncsc3c2)n1
30 | 500 | COc1cccc([C@H](C)Nc2cc(-c3cccc(F)c3)nc(C)n2)c1
31 | > 1000 | Cc1nc(NC(C)c2ccc(F)c(OCc3ccnn3C)c2)cc(-c2ccc3ncsc3c2)n1 (stereo not drawn)
32 | 500 | COc1cccc(-c2cc(NC(C)c3cccc(Br)c3)nc(C)n2)c1Cl (stereo not drawn)

Further lines, the compound ahead of its results:

Row | SMILES | IC50 [nM]
33 | COc1cccc(CNc2cc(-c3ccc4occ(C)c4c3)nc(C)n2)c1 | 500
34 | CCc1coc2ccc(-c3cc(N[C@@H](C)c4cccc(OC)c4)nc(C)n3)cc12 | > 1000
35 | Cc1nc(NCCCN(C)c2ccccc2)cc(-c2ccc3ncsc3c2)n1 | > 1000
36 | COc1cccc(-c2cc(NC(C)c3cccc(S(N)(=O)=O)c3)nc(C)n2)c1 (stereo not drawn) | > 1000
37 | COc1cccc([C@H](C)Nc2cc(-c3cccc(OC(F)(F)F)c3)nc(C)n2)c1 | > 1000
38 | Cc1nc(N[C@@H]2CCCc3ccccc32)cc(-c2ccc(F)cc2)n1 | 500
39 | CNC(=O)COc1cccc(C(C)Nc2cc(-c3cccc(OC)c3)nc(C)n2)c1 (stereo not drawn) | 500
40 | Cc1nc(NC(C)c2cccc(OCc3noc(C)n3)c2)cc(-c2ccc3ncsc3c2)n1 (stereo not drawn) | 500
41 | Cc1nc(N[C@@H]2CCCc3ccccc32)cc(-c2cccc(C=O)c2)n1 | > 1000
42 | CCOC(=O)CCCOc1cccc(C(C)Nc2cc(-c3ccc4ccn(C)c4c3)nc(C)n2)c1 (stereo not drawn) | 500
43 | Cc1ccc([C@H](C)Nc2cc(-c3ccc4ccn(C)c4c3)nc(C)n2)cc1 | 500
44 | CCc1cccc(-c2cc(N[C@@H]3CCCc4ccccc43)nc(C)n2)c1 | > 1000
45 | Cc1nc(N[C@@H]2CCCc3ccccc32)cc(-c2cccc(C(N)=O)c2)n1 | > 1000
46 | COc1cccc(-c2cc(NC(C)c3cccc(Br)c3)nc(C)n2)c1 (stereo not drawn) | > 1000
47 | CCOc1cccc(-c2cc(N[C@@H]3CCCc4ccccc43)nc(C)n2)c1 | > 1000
48 | CCCCC(CC)CNc1cc(-c2ccc3ncsc3c2)nc(C)n1 (stereo not drawn) | 500
49 | COc1cccc(-c2cc(NC(C)c3cccc(S(=O)(=O)N(CC#N)C(=O)OC(C)(C)C)c3)nc(C)n2)c1 (stereo not drawn) | > 1000
50 | Cc1nc(NCCc2ccncc2)cc(-c2ccc3ncsc3c2)n1 | > 1000
51 | COc1cccc(-c2cc(NC(C)c3cccc(O)c3)nc(C)n2)c1 (stereo not drawn) | > 1000
52 | Cc1nc(N[C@@H](C)c2ccc(Cl)cc2)cc(-c2ccc3ccn(C)c3c2)n1 | > 1000
53 | CNC(=O)COc1cccc(C(C)Nc2cc(-c3cccc(OC)c3Cl)nc(C)n2)c1 (stereo not drawn) | 500
54 | Cc1nc(NCc2cc(-c3ccccc3)no2)cc(-c2ccc3ncsc3c2)n1 | > 1000
55 | Cc1ccc([C@H](C)Nc2cc(-c3ccc4occ(C)c4c3)nc(C)n2)cc1 | 500
56 | Cc1nc(NC(C)c2cccc(C#N)c2)cc(-c2ccc3ncsc3c2)n1 (stereo not drawn) | 500

Row | SMILES | IC50 [nM]
57 | COc1cccc([C@H](C)Nc2cc(-c3ccnc(C)c3)nc(C)n2)c1 | > 1000
58 | Cc1nc(NCCc2c[nH]cn2)cc(-c2ccc3ncsc3c2)n1 | > 1000
59 | Cc1nc(N[C@@H]2CCCc3ccccc32)cc(-c2ccncc2)n1 | > 1000
60 | Cc1nc(NCC2CCCN(C(=O)OC(C)(C)C)C2)cc(-c2ccc3ncsc3c2)n1 (stereo not drawn) | > 1000
61 | Cc1nc(NC(C)c2cccc(-c3noc(C)n3)c2)cc(-c2ccc3ncsc3c2)n1 (stereo not drawn) | > 1000
62 | Cc1nc(NC(C)c2cccc(-c3cnn(C)c3)c2)cc(-c2ccc3[nH]ccc3c2)n1 (stereo not drawn) | 500
63 | Cc1nc(NC[C@@H]2CCCN(C(=O)OC(C)(C)C)C2)cc(-c2ccc3ncsc3c2)n1 | > 1000
64 | COc1cccc([C@H](C)Nc2cc(N[C@@H]3CCCc4ccccc43)nc(C)n2)c1 | > 1000
65 | Cc1nc(N[C@@H]2CCCc3ccccc32)cc(-c2cccc(CO)c2)n1 | > 1000
66 | CC(=O)c1cccc(-c2cc(N[C@@H]3CCCc4ccccc43)nc(C)n2)c1 | > 1000
67 | COc1cccc(C(C)Nc2cc(-c3ccc4occ(C)c4c3)nc(C)n2)c1F (stereo not drawn) | > 1000
68 | COC(=O)CNc1cccc(C(C)Nc2cc(-c3cccc(OC)c3)nc(C)n2)c1 (stereo not drawn) | > 1000
69 | COc1cccc([C@H](C)Nc2cc(-c3cccc(OC)c3F)nc(C)n2)c1 | 500
70 | COc1cccc([C@H](C)Nc2cc(-c3cccc(C)c3)nc(C)n2)c1 | 500
71 | Cc1nc(N[C@@H]2CCCc3ccccc32)cc(-c2cccc(N)c2)n1 | > 1000
72 | COc1cccc(-c2cc(NC(C)c3cccc(OCC#N)c3)nc(C)n2)c1 (stereo not drawn) | 500
73 | CCn1ccc2ccc(-c3cc(N[C@@H](C)c4cccc(OC)c4)nc(C)n3)cc21 | > 1000
74 | COc1cccc([C@H](C)Nc2cc(-c3ccncc3)nc(C)n2)c1 | > 1000
75 | Cc1cc(COc2cccc(C(C)Nc3cc(-c4cc5ccccc5n4C)nc(C)n3)c2)n(C)n1 (stereo not drawn) | 500
76 | Cc1cccc(-c2cc(N[C@@H]3CCCc4ccccc43)nc(C)n2)c1 | 500
77 | Cc1nc(N[C@@H]2CCCc3ccccc32)cc(-c2ccccc2Cl)n1 | > 1000
78 | COc1ccc2c(c1)CCCC2Nc1cc(-c2ccc3ncsc3c2)nc(C)n1 (stereo not drawn) | 500
79 | COc1cccc([C@H](C)Nc2cc(-c3cccnc3)nc(C)n2)c1 | > 1000
80 | COc1cccc2c1CCCC2Nc1cc(-c2ccc3ncsc3c2)nc(C)n1 (stereo not drawn) | > 1000

Row | SMILES | IC50 [nM]
81 | COC(=O)c1cc(-c2cc(N[C@@H]3CCCc4ccccc43)nc(C)n2)ccc1Cl | 500
82 | COCCn1ccc2ccc(-c3cc(N[C@@H]4CCCc5ccccc54)nc(C)n3)cc21 | > 1000
83 | COc1cc(-c2cc(NC(C)c3cccc(OCC(N)=O)c3)nc(C)n2)ccc1C (stereo not drawn) | 500
84 | CCOC(=O)CNC(=O)COc1cccc(C(C)Nc2cc(-c3ccc4ccn(C)c4c3)nc(C)n2)c1 (stereo not drawn) | 500
85 | CC(C)CCC(C)NC1C=C(c2ccc3ncsc3c2)N=CN1C (stereo not drawn) | > 1000
86 | Cc1nc(N[C@@H]2CCCc3ccccc32)cc(-c2cn[nH]c2)n1 | > 1000
87 | COc1cccc([C@H](C)Nc2cc(-c3ccc(C)c(OC)c3)nc(C)n2)c1 | 500
88 | Cc1nc(NC(C)c2cccc(OCC(=O)N3CCOCC3)c2)cc(-c2ccc3ncsc3c2)n1 (stereo not drawn) | 500
89 | COC(=O)COc1cccc(C(C)Nc2cc(-c3cccc(OC)c3)nc(C)n2)c1 (stereo not drawn) | > 1000
90 | COc1cc(-c2cc(NC(C)c3cccc(OCc4ccn(C)n4)c3)nc(C)n2)ccc1C (stereo not drawn) | 500
91 | COc1cccc(-c2cc(N[C@@H]3CCCc4ccccc43)nc(C)n2)c1Cl | 500
92 | Cc1nc(NC(C)c2cccc(OCc3ccn[nH]3)c2)cc(-c2ccc3ncsc3c2)n1 (stereo not drawn) | 500
93 | Cc1nc(N[C@@H]2CCCc3ccccc32)cc(-c2ccc(N)cc2)n1 | > 1000
94 | Cc1ccc2c(c1)C(Nc1cc(-c3ccc4ncsc4c3)nc(C)n1)CCO2 (stereo not drawn) | > 1000
95 | Cc1nc(NCc2cccc(-n3cccc3)c2)cc(-c2ccc3ncsc3c2)n1 | > 1000
96 | Cc1nc(NC(C)c2cccc(OC(C)(C)C(N)=O)c2)cc(-c2ccc3ncsc3c2)n1 (stereo not drawn) | 500
97 | Cc1nc(N[C@@H]2CCCc3ccccc32)cc(-c2cncnc2)n1 | > 1000
98 | CCc1coc2ccc(-c3cc(NC(C)c4cccc(OCc5cc(C)nn5C)c4)nc(C)n3)cc12 (stereo not drawn) | > 1000
99 | COc1cccc(-c2cc(NC3CCc4ccccc43)nc(C)n2)c1Cl (stereo not drawn) | 500
100 | Cc1nc(NC(C)c2cccc(C(=N)N)c2)cc(-c2ccc3ncsc3c2)n1 (stereo not drawn) | 500
101 | COc1cccc(-c2cc(N[C@@H](C)c3cccc(C(F)(F)F)c3)nc(C)n2)c1 | > 1000
102 | Cc1cc(C)c2c(c1)C(Nc1cc(-c3ccc4ncsc4c3)nc(C)n1)CCC2 (stereo not drawn) | > 1000
103 | COc1ccc(F)c(-c2cc(N[C@@H]3CCCc4ccccc43)nc(C)n2)c1 | > 1000
